Paper PMC8391988 (2021)

Experiments:
[1] = tested on: poly rA–poly rU (RNA, polymer) A/U; test: fluorimetric titration, Scatchard; conditions: Na+ (sodium cacodylate, I = 0.05 M); pH 7.0; apparent; per phosphate; n fixed at 0.2; dye 1.3–1.5 × 10^-7 M; per base
[2] = tested on: poly dAdT–poly dAdT (DNA, polymer) AT; test: fluorimetric titration, Scatchard; conditions: Na+ (sodium cacodylate, I = 0.05 M); pH 7.0; apparent; per phosphate; n fixed at 0.2; dye 1.3–1.5 × 10^-7 M; per base
[3] = tested on: poly rA–poly rU (RNA, polymer) A/U; test: UV thermal melting at 260 nm; conditions: Na+ (sodium cacodylate, I = 0.05 M), pH 7.0, polynucleotide 1–2 × 10^-5 M, per base
[4] = tested on: poly dG–poly dC (DNA, polymer) G/C; test: fluorimetric titration, Scatchard; conditions: Na+ (sodium cacodylate, I = 0.05 M); pH 7.0; apparent; per phosphate; n fixed at 0.2; dye 1.3–1.5 × 10^-7 M; per base
[5] = tested on: poly dA–poly dT (DNA, polymer) A/T; test: fluorimetric titration, Scatchard; conditions: Na+ (sodium cacodylate, I = 0.05 M); pH 7.0; apparent; per phosphate; n fixed at 0.2; dye 1.3–1.5 × 10^-7 M; per base
[6] = tested on: poly dGdC–poly dGdC (DNA, polymer) GC; test: fluorimetric titration, Scatchard; conditions: Na+ (sodium cacodylate, I = 0.05 M); pH 7.0; apparent; per phosphate; n fixed at 0.2; dye 1.3–1.5 × 10^-7 M; per base
[7] = tested on: poly rG–poly rC (RNA, polymer) G/C; test: fluorimetric titration, Scatchard; conditions: Na+ (sodium cacodylate, I = 0.05 M); pH 7.0; apparent; per phosphate; n fixed at 0.2; dye 1.3–1.5 × 10^-7 M; per base
[8] = tested on: poly dAdT–poly dAdT (DNA, polymer) AT; test: UV thermal melting at 260 nm; conditions: Na+ (sodium cacodylate, I = 0.05 M); pH 7.0; r = [compound]/[phosphate] = 0.2; polynucleotide 1–2 × 10^-5 M; per base
[9] = r = [compound]/[phosphate] = 0.2

SMILES | log Ks [1] | log Ks [2] | ΔTm ([3]; r = 0.1, destabilised (−19.1) at r = 0.2) [°C] | log Ks [4] | log Ks [5] | log Ks [6] | log Ks [7] | ΔTm [3, 9] [°C] | ΔTm [8] [°C]
CC(O)C[n+]1c(C=C2C=CN(CCC[n+]3ccc(CCCc4cc[n+](CCCN5C=CC(=Cc6sc7ccccc7[n+]6CC(C)O)c6ccccc65)cc4)cc3)c3ccccc32)sc2ccccc21 (stereo not drawn) | 6.22 | 6.68 | 10.6 | 6.78 | 6.23 | 7.04 | 4.76 | – | –
CC(O)C[n+]1c(C=C2C=CN(CCC[N+](C)(C)CCC[N+](C)(C)C)c3ccccc32)sc2ccccc21 (stereo not drawn) | 6.11 | 6.65 | – | 6.79 | 6.41 | 6.98 | 5.23 | 24.0 | 28.6
CC(O)C[n+]1c(C=C2C=CN(CCC[N+]3(C)CCC(CCCC4CC[N+](C)(CCCN5C=CC(=Cc6sc7ccccc7[n+]6CC(C)O)c6ccc(Cl)cc65)CC4)CC3)c3cc(Cl)ccc32)sc2ccccc21 (stereo not drawn) | 6.14 | 6.05 | – | 7.41 | 5.91 | 7.40 | 4.95 | 0.6 | 7.1
CC(O)C[n+]1c(C=C2C=CN(CCC[N+]3(C)CCC(CCCC4CC[N+](C)(CCCN5C=CC(=Cc6sc7ccccc7[n+]6CC(C)O)c6ccccc65)CC4)CC3)c3ccccc32)sc2ccccc21 (stereo not drawn) | 6.14 | 6.98 | – | 6.63 | 5.89 | 7.20 | 4.79 | 0 | 10.7
CC(O)C[n+]1c(C=C2C=CN(CCC[N+](C)(C)CCC[N+](C)(C)CCCN3C=CC(=Cc4sc5ccccc5[n+]4CC(C)O)c4ccccc43)c3ccccc32)sc2ccccc21 (stereo not drawn) | 7.15 | 7.23 | – | 7.55 | 6.19 | 7.64 | 4.94 | 3.0 | 8.9
